Measurements reported in patent US4329341A, “5-Phenyl-1,3,4,5-tetrahydro-2H-1,4-benzodiazepin-2-ones, and pharmaceutical compositions containing them” (Richter Gedeon Vegyeszeti Gyar Rt, priority 1980, dated 1982).

Key:
[1] = test system: NADPH-depending multifunctional oxydase enzyme system of the liver; test: Hexobarbital-induced sleeping time (measurement of enzyme inducing activity); type: in vivo, CFLP male mice; conditions: for Hexobarbital-sleeping time, 1-hour pretreatment, average ± SE / Hexobarbital-sleeping time, 1-hour pretreatment, Δ% (percentage change related to the control) / Hexobarbital-sleeping time, 24-hour pretreatment, Δ% (percentage change related to the control) / Hexobarbital-sleeping time, 24-hour pretreatment, average ± SE: 40 mg./kg. p.o., hexobarbital 60 mg./kg. i.v.; for Hexobarbital-sleeping time, 1-hour pretreatment, average ± SE: control 35 ± 2.38; for Hexobarbital-sleeping time, 1-hour pretreatment, Δ% (percentage change related to the control) / Hexobarbital-sleeping time, 24-hour pretreatment, average ± SE: x: p < 0.001 compared to the control; for Hexobarbital-sleeping time, 24-hour pretreatment, average ± SE: control 34 ± 2.60
Description: The biological activity and duration of activity of different endogenic and exogenic compounds are greatly influenced by the activity of the NADPH- (nicotinic acid amide-adenine-dinucleotide phosphate-) depending multifunctional oxydase enzyme system of the liver. There are numerous compounds known in the art, showing various pharmacological activities, which are capable of increasing or inducing the activity of the metabolising, multifunctional oxydase enzyme system of the liver [see e.g. Sher, S.P.: Toxicol. appl. Pharmacol. 18, 780 /1971/; G. J. Mannering: in A. Burger's Selected Pharmacological Testing Methods, 51-119 S., Marcel Dekker Inc., New York /1968/]. […] Therefore phenobarbital can successfully be used in the treatment of Czigler-Najjar and Cilbert syndroms and neonatal hyperbilirubinemia, though due to its hypnotic-sedative effect the inducing activity of this compound is not optimal [Vessel and J. E. Page: J. Clin. Invest. 48, 2202 /1969/; J. T. Wilson: Pediatrics 43, 424 /1969/].
For screening the enzyme inducing activity the change in the hexobarbital-induced sleeping time is conventionally measured. The inducing activity of the compounds of the general formula (I) according to the invention was compared to the corresponding activity of phenobarbital and to their own sedative effect, using the following test methods.
Determination of the sleeping time induced by hexobarbital (measurement of enzyme inducing activity)
After (a) one hour and (b) after 24-hour pretreatment with a 40 mg./kg. p.o. dose of the test compounds, the groups of test animals were administered a 60 mg./kg. i.v. dose of hexobarbital.
(§1) As test animals CFLP male mice weighing […]. were used.

CFLP male mice = test: Potentiation of activity of sodium-barbital (measurement of the sedative activity); type: in vivo; conditions: for Number of the test animals fallen asleep in % of the control: 20 mg./kg. i.p., after one hour Na-barbital 100 mg./kg. i.p.
Protocol: Determination of the potentiation of activity of sodium-barbital (measurement of the sedative activity)
In the tests carried out [see S. Goldschmidt and R. Wohr: Z. physiol. Chem. 308, 9 /1957/; D. V. Parker: J. Pharm. Pharmac. 27, 729 /1975/] the test animals were pretreated with a 20 mg./kg. i.p. dose of the test compounds of the general formula (I) and after one hour were administered a 100 mg./kg. i.p. dose of Na-barbital.
as §1

Acute toxicity (p.o.) = test: Acute toxicity (p.o.); set-up: species or system CFLP male mice; conditions: mouse, in vivo, po, 14 days
Protocol: To the test animals 250 and 500 mg./kg. doses, resp. of the test compounds were administered orally and the number of the dead animals was registered for 14 days.
as §1

[2] = test system: metabolysing enzyme system of the liver; conditions: diseases caused by defectiveness of the metabolysing enzyme system of the liver; cited from earlier work

SMILES	Hexobarbital-sleeping time, 1-hour pretreatment, average ± SE ([1]; 1-hour pretreatment) [min]	Hexobarbital-sleeping time, 1-hour pretreatment, Δ% (percentage change related to the control) ([1]; 1-hour pretreatment)	Hexobarbital-sleeping time, 24-hour pretreatment, Δ% (percentage change related to the control) [1] [%]	Hexobarbital-sleeping time, 24-hour pretreatment, average ± SE [1] [min]	Number of the test animals fallen asleep in % of the control (CFLP male mice)	LD50 at 336 h (Acute toxicity (p.o.)) [mg/kg]	Increase of sleeping time relative to its original value ([1]; 1-hour pretreatment) [times]	Inducing activity in human diseases, in words [2]	Narcotic effect of Na-barbital alone (CFLP male mice; 100 mg./kg. i.p. Na-barbital)	Sleeping time 1 hour after administration, in words ([1]; 1-hour pretreatment)
C[C@H]1N[C@H](c2ccccc2)c2cc(Cl)ccc2N(C)C1=O [Example 2, 3R,5R-1,3-Dimethyl-5-phenyl-7-chloro-1,3,4,5-tetrahydro-2H-1,4-benzodiazepin-2-one]	61.2 ± 5.21	+73%	-61	13.3 ± 0.54	.phi.					
CCC1(c2ccccc2)C(=O)NC(=O)NC1=O [Phenobarbital, reference compound]	86.2 ± 7.51	+145%	-69	11.2 ± 0.35	60%	191	~3	shows an inducing activity in the case of human diseases		
CCC1(CC)C(=O)NC(=O)NC1=O [Na-barbital, sodium-barbital, reference compound]									no narcotic effect	
C[C@H]1C(=O)N(C)c2ccc(Cl)cc2[C@H](c2ccccc2)N1C(N)=O [Example 3, 3S,5S-1,3-Dimethyl-4-carbamoyl-5-phenyl-7-chloro-1,3,4,5-tetrahydro-2H-1,4-benzodiazepin-2-one]	43.3 ± 4.18	+23%	-65	12.0 ± 0.83	0%					most favourable properties
C[C@@H]1N[C@@H](c2ccccc2)c2cc(Cl)ccc2N(C)C1=O [Example 1, 3S,5S-1,3-Dimethyl-5-phenyl-7-chloro-1,3,4,5-tetrahydro-2H-1,4-benzodiazepin-2-one]	67.2 ± 7.01	+91%	-43	19.5 ± 1.84	50%					
C[C@@H]1C(=O)N(C)c2ccc(Cl)cc2[C@@H](c2ccccc2)N1C(N)=O (relative stereo) [Example 5, 3RS,5RS-1,3-Dimethyl-4-carbamoyl-5-phenyl-7-chloro-1,3,4,5-tetrahydro-2H-1,4-benzodiazepin-2-one]	37.3 ± 3.01	+6%	-73	9 ± 0.43	20%					most favourable properties
C[C@@H]1C(=O)N(C)c2ccc(Cl)cc2[C@@H](c2ccccc2)N1C(N)=O [Example 4, 3R,5R-1,3-Dimethyl-4-carbamoyl-5-phenyl-7-chloro-1,3,4,5-tetrahydro-2H-1,4-benzodiazepin-2-one]	43.3 ± 5.01	+23%	-71	9.9 ± 0.62	.phi.					most favourable properties
